Among the data in PubChem BioAssay (NCI) are GI50 and TGI values, retold here.

Among the test systems are HT29 colon; SN12C renal; PC-3 prostate; UO-31 renal; T-47D breast; HOP-62 NSCLC; UACC-62 melanoma; HOP-92 NSCLC; HCT-116 colon; A498 renal.
Common to all, as to experiment: NCI anticancer screen, dose series, 48 h

Structures are written as SMILES. Several values for one entry are separate records, joined by “and”; a condition that tells them apart may be missing. Identical values can stand only once.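 Interpolation was linear, between the two tested concentrations surrounding the appropriate level; five concentrations were tested over 48 hours in 96-well plates. GI50 = concentration required for 50% inhibition of growth. At the TGI there is no net growth.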

Take `COc1ccc(-c2nn(-c3cccc(Cl)c3)cc2-c2c(C#N)c(=O)n3[nH]c(-c4ccc(C)cc4)nc3c2C#N)cc1`: the GI50 in the experiment with HT29 colon was 1.49 µM; in the experiment on SN12C renal it was 4.52 µM; in the experiment on PC-3 prostate, 1.7 µM; in the experiment with UO-31 renal it was 3.39 µM; in the experiment on T-47D breast, 5.15 µM; in the experiment on HOP-62 NSCLC, 0.884 µM. In addition, the GI50 is 2.54 µM in the experiment with UACC-62 melanoma, 0.723 µM in the experiment on HOP-92 NSCLC, 1.24 µM in the experiment on HCT-116 colon and 0.575 µM with A498 renal. The TGI was more than 50 µM in the experiment with HT29 colon; 11.5 µM in the experiment on SN12C renal; 9.26 µM in the experiment with PC-3 prostate; 11.2 µM in the experiment with UO-31 renal; 12.1 µM in the experiment on T-47D breast; 2.19 µM with HOP-62 NSCLC. The TGI in the experiment with UACC-62 melanoma was determined as 10.2 µM; with HOP-92 NSCLC, 4.88 µM; with HCT-116 colon, 6 µM; in the experiment with A498 renal, 7.63 µM.
Consider `CCn1c2ccc(C(=O)CCCN(C)C)cc2c2cc(C(=O)CCCN(C)C)ccc21`, for which the TGI with HT29 colon was determined as 4.24 µM; with SN12C renal, 5.87 µM; with PC-3 prostate, 5.88 µM; in the experiment on UO-31 renal it was 12.8 µM; in the experiment on T-47D breast, 33.5 µM; with HOP-62 NSCLC, 3.48 µM. The TGI in the experiment with UACC-62 melanoma worked out at 20.8 µM; with HOP-92 NSCLC, 9.24 µM; in the experiment with HCT-116 colon, 11.6 µM; in the experiment with A498 renal, 4.51 µM.
Consider `CN[C@@H]1C[C@H]2O[C@@](C)([C@@H]1OC)n1c3ccccc3c3c4c(c5c6ccccc6n2c5c31)C(=O)N[C@H]4O`, for which the GI50 was 0.0827 µM with HT29 colon; 0.0149 µM with PC-3 prostate; 0.0116 µM in the experiment with UO-31 renal; 0.00739 µM in the experiment on T-47D breast; 0.0187 µM in the experiment on HOP-62 NSCLC; 0.0134 µM with UACC-62 melanoma. Besides, the GI50 is 0.00753 µM in the experiment on HOP-92 NSCLC, 0.166 µM in the experiment with HCT-116 colon and 0.0053 µM in the experiment with A498 renal. Besides, the TGI stood at 1.38 µM with HT29 colon; 1.7 µM in the experiment with SN12C renal; 1.14 µM in the experiment with PC-3 prostate; 0.0547 µM with UO-31 renal; 0.163 µM in the experiment with T-47D breast; 0.766 µM in the experiment with HOP-62 NSCLC. Further, the TGI with UACC-62 melanoma came to 0.231 µM; in the experiment with HOP-92 NSCLC it was 0.0613 µM; in the experiment on HCT-116 colon, 1.89 µM; with A498 renal, 0.0203 µM.
With `COc1cc2c(cc1OC)C(CC1(O)CCCCC1)N(S(=O)(=O)c1ccc(C)cc1)CC2` (configuration not stated), the GI50 in the experiment on HT29 colon, in the experiment with SN12C renal, in the experiment with PC-3 prostate, with UO-31 renal, with T-47D breast and in the experiment on HOP-62 NSCLC was more than 10 µM throughout. The GI50 in the experiment with UACC-62 melanoma, in the experiment with HOP-92 NSCLC, with HCT-116 colon and in the experiment with A498 renal was more than 10 µM throughout. For the same compound, the TGI in the experiment with HT29 colon, in the experiment on SN12C renal, in the experiment with PC-3 prostate, with UO-31 renal, in the experiment on T-47D breast and with HOP-62 NSCLC was more than 10 µM in each case. Moreover, the TGI in the experiment with UACC-62 melanoma, with HOP-92 NSCLC, with HCT-116 colon and with A498 renal was more than 10 µM throughout.
For `Oc1ccc2ccccc2c1C1NN=C(c2ccccc2)S1` (configuration not stated), the GI50 in the experiment with HT29 colon is 0.724 µM; with SN12C renal, 0.61 µM; in the experiment on PC-3 prostate, 0.645 µM; in the experiment with UO-31 renal it was 0.409 µM; in the experiment with T-47D breast, 0.525 µM; in the experiment with HOP-62 NSCLC it was 0.454 µM. The GI50 is 0.362 µM in the experiment on UACC-62 melanoma, 0.244 µM in the experiment on HOP-92 NSCLC, 0.408 µM in the experiment with HCT-116 colon and 1.34 µM with A498 renal. In addition, the TGI in the experiment with HT29 colon is 40 µM; with SN12C renal, 35.7 µM; with PC-3 prostate, more than 100 µM; in the experiment with UO-31 renal, more than 20.4 µM; in the experiment with T-47D breast it was 33.5 µM; with HOP-62 NSCLC, 31.7 µM. Moreover, the TGI in the experiment on UACC-62 melanoma was 6.3 µM; with HOP-92 NSCLC it was 12.2 µM; in the experiment with HCT-116 colon, more than 34.4 µM; in the experiment with A498 renal it was 14.1 µM.
Turning to `C[C@@H](NC(=O)[C@@H](CC(=O)N1CCC(N2CCCCC2)CC1)N1C(=O)[C@@H](N2C(=O)OC[C@@H]2c2ccccc2)[C@H]1/C=C/c1cccc(Cl)c1)c1ccccc1`, the GI50 in the experiment with HT29 colon is 2.78 µM; in the experiment on SN12C renal, 2.9 µM; in the experiment on PC-3 prostate it was 5.37 µM; in the experiment on UO-31 renal, 2.03 µM; in the experiment with T-47D breast it was 1.9 µM; with HOP-62 NSCLC, 4.16 µM. In addition, the GI50 in the experiment on UACC-62 melanoma was 1.95 µM; in the experiment on HOP-92 NSCLC it was 3.64 µM; with HCT-116 colon, 1.97 µM; in the experiment with A498 renal, 13.2 µM. The TGI amounted to 7.95 µM in the experiment with HT29 colon; 8.85 µM with SN12C renal; 18.9 µM in the experiment on PC-3 prostate; 5.35 µM with UO-31 renal; 4.33 µM with T-47D breast; 18.4 µM in the experiment on HOP-62 NSCLC. Besides, the TGI with UACC-62 melanoma turned out to be 3.88 µM; with HOP-92 NSCLC it was 16.8 µM; in the experiment with HCT-116 colon, 4.11 µM; in the experiment with A498 renal, 27.7 µM.
On to `CCOC(=O)NC1=C(N2CC2)C(=O)C(NC(=O)OCC)=C(N2CC2)C1=O`, for which the GI50 with HT29 colon was 14.5 µM and 9.07 µM; in the experiment with SN12C renal, 3.3 µM and 3.06 µM; with UO-31 renal, 11.1 µM and 4 µM; in the experiment on HOP-62 NSCLC, 1.56 µM and 1.75 µM; with UACC-62 melanoma, 1.75 µM; in the experiment on HOP-92 NSCLC, 6.18 µM. Besides, the GI50 is 4.59 µM and 4.37 µM in the experiment on HCT-116 colon; 8.08 µM and 5.41 µM in the experiment with A498 renal. Besides, the TGI in the experiment with HT29 colon was 25 µM and 47.3 µM and 70.2 µM; in the experiment on SN12C renal, 25 µM and 14.2 µM and 7.15 µM; in the experiment on PC-3 prostate, 16.2 µM; in the experiment on UO-31 renal it was 25 µM and 21.7 µM and 22.4 µM; in the experiment with T-47D breast, 16.8 µM; in the experiment on HOP-62 NSCLC it was 15.1 µM and 7.44 µM and 2.9 µM. In addition, the TGI in the experiment on UACC-62 melanoma was 12 µM and 4.37 µM and 1.74 µM; in the experiment with HOP-92 NSCLC, 16.1 µM and 11.2 µM and 10.1 µM; with HCT-116 colon, 15.1 µM and 9.91 µM and 11.8 µM; in the experiment with A498 renal, 20.3 µM and 9.75 µM and 12.5 µM.
Take `CC(C)[NH-].CC(C)[NH-].O.O.[Cl][Pt+2][Cl]`: the GI50 is 12.7 µM in the experiment on HT29 colon; 35.9 µM with SN12C renal; 90.8 µM in the experiment on PC-3 prostate; 147 µM in the experiment with UO-31 renal; 50.9 µM with T-47D breast; 55.8 µM in the experiment on HOP-62 NSCLC. The GI50 in the experiment with UACC-62 melanoma was 26.7 µM; with HOP-92 NSCLC, 22.3 µM; in the experiment with HCT-116 colon it was 20.6 µM; with A498 renal, 150 µM. The TGI amounted to 83.8 µM in the experiment with HT29 colon; 133 µM in the experiment with SN12C renal; 298 µM with PC-3 prostate; 356 µM with UO-31 renal; 381 µM with T-47D breast; 194 µM with HOP-62 NSCLC. The TGI was 128 µM with UACC-62 melanoma, 70.8 µM in the experiment on HOP-92 NSCLC, 69.3 µM in the experiment with HCT-116 colon and 358 µM in the experiment on A498 renal.
